Measurements taken from ChEMBL document CHEMBL1138244, “Three-dimensional quantitative structure-activity relationships and activity predictions of human TRPV1 channel antagonists: comparative molecular field analysis and comparative molecular similarity index analysis of cinnamides” (J Med Chem, 2007).

Experiment: Inhibition of rat human chimera TRPV1 channel expressed in CHO cells
Assay type: cell-based
`Cc1cccc(/C(=C/C(=O)Nc2ccc3c(c2)OCCO3)c2ccc(C(C)(C)C)cc2)c1` gave an IC50 of 59 nM and a pIC50 of 7.23. `CC(C)(C)c1ccc(/C(=C\C(=O)Nc2ccc3c(c2)OCCO3)c2ccc(Cl)cc2)cc1` gave an IC50 of 42 nM and a pIC50 of 7.37. With `CC(C)(C)c1ccc(/C(=C\C(=O)Nc2ccc3c(c2)OCCO3)c2ccc(F)cc2)cc1` the IC50 was 39 nM and the pIC50 was 7.41. With `O=C(/C=C/c1cccc(C(F)(F)F)c1)Nc1ccc2c(c1)OCCO2` the IC50 was 1210 nM and the pIC50 was 5.92. Work on `O=C(/C=C/c1cccc2ccccc12)Nc1ccc2c(c1)OCCO2` yielded an IC50 of 643 nM and a pIC50 of 6.19. `O=C(/C=C/c1ccc(F)cc1F)Nc1ccc2c(c1)OCCO2` gave an IC50 of 3600 nM and a pIC50 of 5.44. With `CC(=O)Nc1ccc(/C=C/C(=O)Nc2ccc3c(c2)OCCO3)cc1` the IC50 was greater than 40000 nM and the pIC50 was 4.4. `CC(=O)Oc1ccc(/C=C/C(=O)Nc2ccc3c(c2)OCCO3)cc1` gave an IC50 of 2330 nM and a pIC50 of 5.63. `Cc1ccc(C(=CC(=O)Nc2ccc3c(c2)OCCO3)c2ccc(C)cc2)cc1` gave an IC50 of 247 nM and a pIC50 of 6.61. With `O=C(/C=C/c1ccc(C2CC2)cc1)Nc1ccc2c(c1)OCCO2` the IC50 was 419 nM and the pIC50 was 6.38. In the case of `Cc1ccc(/C=C/C(=O)Nc2ccc3c(c2)OCCO3)cc1C`, the IC50 is reported as 455 nM and the pIC50 is reported as 6.34. Molecule `C=Cc1ccc(/C=C/C(=O)Nc2ccc3c(c2)OCCO3)cc1` has an IC50 of 3520 nM and a pIC50 of 5.45. With `O=C(C=C(c1ccc(Br)cc1)c1ccc(Br)cc1)Nc1ccc2c(c1)OCCO2` the IC50 was 61 nM and the pIC50 was 7.22. `Cc1ccc(/C(=C/C(=O)Nc2ccc3c(c2)OCCO3)c2ccc(C(C)(C)C)cc2)cc1` gave an IC50 of 93 nM and a pIC50 of 7.03. Work on `CCC(C)(C)c1ccc(/C=C/C(=O)Nc2ccc3c(c2)OCCO3)cc1` yielded an IC50 of 48 nM and a pIC50 of 7.32. With `O=C(/C=C/c1ccc2ccccc2c1)Nc1ccc2c(c1)OCCO2` the IC50 was 740 nM and the pIC50 was 6.13. `O=C(/C=C/c1ccc(I)cc1)Nc1ccc2c(c1)OCCO2` showed an IC50 of 509 nM and a pIC50 of 6.29. In the case of `O=C(/C=C/c1ccc(C(F)(F)F)c(F)c1)Nc1ccc2c(c1)OCCO2`, the IC50 is reported as 129 nM and the pIC50 is reported as 6.89. Molecule `O=C(/C=C/c1cccc(OC(F)(F)F)c1)Nc1ccc2c(c1)OCCO2` has an IC50 of 1620 nM and a pIC50 of 6.79. With `CC(C)(C)c1ccc(/C=C/C(=O)Nc2ccc3c(c2)OCCO3)cc1` (stereo in doubt; 1) the IC50 was 23 nM and the pIC50 was 7.59. `CC(C)(C)c1ccc(/C=C/C(=O)Nc2ccc3c(c2)OCCO3)cc1` (stereo in doubt; 91) showed an IC50 of 136 nM and a pIC50 of 6.87.
